Assays:
[1] = system: Plasmodium falciparum; test: Antiplasmodial activity against chloroquine-sensitive Plasmodium falciparum 3D7 measured after 72 hrs by DAPI staining based high throughput screening assay; format: functional; conditions: 3D7, 72 h
[2] = Selectivity index, ratio of IC50 for HEK293 cells to IC50 for chloroquine-resistant Plasmodium falciparum Dd2; format: toxicity; conditions: human; read-out: Ratio IC50
[3] = system: HEK293; test: Growth inhibition of HEK293 cells; format: cell-based; conditions: Homo sapiens
[4] = system: Plasmodium falciparum; test: Antiplasmodial activity against chloroquine-resistant Plasmodium falciparum Dd2 measured after 72 hrs by DAPI staining based high throughput screening assay; format: functional; conditions: Dd2, 72 h
[5] = system: Plasmodium falciparum; test: Antiplasmodial activity against chloroquine-sensitive Plasmodium falciparum 3D7; format: functional
[6] = system: Plasmodium falciparum; test: Antiplasmodial activity against chloroquine-resistant Plasmodium falciparum Dd2; format: functional
[7] = Growth inhibition of HEK293 cells at 120 uM relative to control; format: cell-based; conditions: human, read-out: GI
[8] = Growth inhibition of HEK293 cells at 100 uM relative to control; format: cell-based; conditions: human, read-out: GI
[9] = Growth inhibition of HEK293 cells at 20 uM relative to control; format: cell-based; conditions: human, read-out: GI
[10] = Growth inhibition of HEK293 cells at 40 uM relative to control; format: cell-based; conditions: human, read-out: GI
[11] = system: Plasmodium falciparum; test: Antiplasmodial activity against chloroquine-resistant Plasmodium falciparum Dd2 at 40 uM measured after 72 hrs by DAPI staining based high throughput screening assay relative to control; format: functional

CC(C)C[C@H]1C[C@@]2(CC[C@H]3C[C@@H]2C3(C)C)OC2=C1C(=O)C(C)(C)C(=O)C2(C)C
IC50 [1]: 6.7 µM

CC(C)C[C@@H]1OC12C(=O)C(C)(C)C(=O)C(C)(C)C2=O
selectivity ratio [2]: < 10
IC50 [3]: 15.9 µM
IC50 [1]: 3 µM
IC50 [4]: 2530 nM

C=C1CC[C@H]2[C@H](CC(C)C)C3=C(O[C@]2(C)CC[C@@H]2[C@@H]1CC2(C)C)C(C)(C)C(=O)C(C)(C)C3=O
IC50 [1]: 11.3 µM

CC(C)CC(=O)c1c(O)c2c(c3c1O[C@]1(C(C)C)OC4=C(C(=O)C(C)(C)C(=O)C4(C)C)[C@H]31)OC1=C(C(=O)C(C)(C)C(=O)C1(C)C)[C@@H]2CC(C)C
IC50 [5]: 1000 nM
IC50 [6]: 1490 nM

Cc1c2c(c(O)c3c1OC1=C(C(=O)C(C)(C)C(=O)C1(C)C)[C@@H]3CC(C)C)C(=O)C[C@@H](c1ccccc1)O2
IC50 [1]: 10.7 µM

CC(C)[C@]12OC3=C(C(=O)C(C)(C)C(=O)C3(C)C)[C@H]1C1=C(O2)C(C)(C)C(=O)C(C)(C)C1=O
IC50 [1]: 14 µM

Cc1c(O)c(C(=O)CCc2ccccc2)c2c(c1O)[C@@H]1C3=C(O[C@]1(C(C)C)O2)C(C)(C)C(=O)C(C)(C)C3=O
IC50 [5]: 290 nM
IC50 [6]: 440 nM
inhibition at 120 µM [7]: 85%
IC50 [1]: 1.07 µM

C=C1CC[C@H]2[C@@H](CC(C)C)C3=C(O[C@]2(C)CC[C@@H]2[C@@H]1CC2(C)C)C(C)(C)C(=O)C(C)(C)C3=O
IC50 [1]: 8.9 µM

CC(C)C[C@H]1C2=C(O[C@@]3(C)C=C4[C@@H](C[C@@H]13)[C@@H](C)CC[C@@H]4C(C)C)C(C)(C)C(=O)C(C)(C)C2=O
inhibition at 100 µM [8]: 68%
IC50 [1]: 26.9 µM

CC(C)CC(=O)c1c(O)cc(O)c2c1O[C@@]1(C(C)C)OC3=C(C(=O)C(C)(C)C(=O)C3(C)C)[C@@H]21
inhibition at 100 µM [8]: 59%
IC50 [1]: 10.5 µM

CC(C)CC(C1=C(O)C(C)(C)C(=O)C(C)(C)C1=O)C1=C(O)C(C)(C)C(=O)C(C)(C)C1=O
IC50 [5]: 5300 nM
IC50 [6]: 8800 nM
inhibition at 120 µM [7]: 42%
IC50 [1]: 0.44 µM

CC(C)CC(=O)c1c(O)cc2c(c1O)[C@@H](CC(C)C)C1=C(O2)C(C)(C)C(=O)C(C)(C)C1=O
selectivity ratio [2]: < 10
IC50 [3]: 11.4 µM
IC50 [1]: 1.8 µM
IC50 [4]: 4000 nM

C[C@H]1[C@H](OC(=O)CCC(=O)O)O[C@@H]2O[C@@]3(C)CC[C@H]4[C@H](C)CC[C@@H]1[C@@]24OO3 [ARTESUNATE]
inhibition at 20 µM [9]: 94%
IC50 [1]: 0.001 µM

COc1ccc(C[C@H](N)C(=O)N[C@H]2[C@@H](O)[C@H](n3cnc4c(N(C)C)ncnc43)O[C@@H]2CO)cc1 [PUROMYCIN]
IC50 [3]: 0.399 µM
IC50 [4]: 61 nM

CCc1nc(N)nc(N)c1-c1ccc(Cl)cc1 [PYRIMETHAMINE]
inhibition at 40 µM [10]: 62%
IC50 [1]: 0.008 µM
Activity [11]: 62%

COc1ccc2nc3cc(Cl)ccc3c(Nc3cc(CN4CCCC4)c(O)c(CN4CCCC4)c3)c2n1 [PYRONARIDINE]
IC50 [3]: 5.22 µM
IC50 [1]: 0.0119 µM
IC50 [4]: 18 nM

Reference: ChEMBL document CHEMBL4017462, “Antiplasmodial β-triketones from the flowers of the Australian tree Angophora woodsiana” (Bioorg Med Chem Lett, 2017)
